Measured values from patent US9868737B2, “Pyridino[1,2-A]pyrimidone analogue used as MTOR/P13K inhibitor” (CISEN PHARMACEUTICAL CO., LTD., priority 2014, dated 2018).
Like-named read-outs stand apart in the source and are kept apart here.

Test system: MCF-7 cells
Assay: In vitro test of cell activity (MCF-7 cells, insulin stimulation, ELISA-One fluorescence)
Assay type: cell-based
Conditions: for inhibition at 0.25 µM: conc. 0.25 μM; for inhibition at 1 µM: conc. 1 μM; for inhibition at 0.5 µM: conc. 0.5 μM
Method: Example In Vitro Tests of Cell Activities Experimental Steps and Methods:
1) MCF-7 cells were inoculated at the density of 2.5×10^4 cells/well into 96-well plates (the culture medium used should be a complete culture medium containing 10% FBS).
2) On the next day, the medium in each well was drawn out. A certain concentration (preliminary screening) or a series of concentration (IC50 test) of compounds were dissolved in a culture medium without serum and added to the 96-well plates to culture cells for 2 hours.
3) Insulin was dissolved in a culture medium without serum, added to the cultured cells and incubated for 30 minutes, wherein the final concentration of insulin was […].
4) A lysis solution was prepared according to the following method during the waiting period for the reaction:
a) Enhancer solution was removed from the refrigerator to melt in advance.
b) Enhancer solution was diluted 10 times with the 5× Lysis Buffer to give a concentrated lysis solution.
c) The concentrated lysis solution was diluted 5 times with double distilled water to give the lysis solution.
5) The medium in each well was completely removed and each well was quickly rinsed with PBS once.
6) 150 μl of the freshly prepared lysis solution was added to each well and shaked at room temperature for 10 minutes.
7) After confirming that all cells were detached, the lysis solution together with the cell fragments was transferred into a 1.5 ml tube.
8) The tube was shaked on vortes mixer to make the lysis solution and cells mix completely and then the mixture was centrifugated at 4° C. under 12000 g for 10 minutes.
9) The number of strips of ELISA-one micro-well plate that is required was calculated. The needless strips were removed from the frame, put back into the storage bag and sealed. Before the strips of micro-well plate were used, 200 μl of double distilled water was used to rinse each well to remove preservative.
10) 50 μl of antibody mixture was added to each well. (The antibody mixture solution was prepared by mixing the medium antibody reagent and the enzyme labeled antibody reagent with an equal proportion. The preparation of antibody mixture didn't need vortex.)
11) 25 μl of cell lysates was added to each well of ELISA-One micro-well plate. The micro-well plate was covered with adhesive sealing film and incubated on a micro-well plate oscillation instrument at room temperature for 1 hour.
12) Each well was rinsed with 150 μl of 1× rinsing buffer 3 times. After the last rinsing, the rinsing buffer in the well was completely removed. If necessary, the 1× rinsing buffer could be allowed to stay in the micro-well plate for up to 30 minutes so that the substrate mixed solution could be prepared during such time period.
13) The substrate mixed solution should be prepared just before each use, 10 μl of the substrate mixed solution was added to each well and the micro-well plate was sealed with tin-foil and incubated on the micro-well plate oscillation instrument at room temperature for 10 minutes.
14) 10 μl of stop solution was added to each well and mixed slightly (5-10 seconds) on the micro-well plate oscillation instrument.
15) The corresponding ELISA-One filter group was assembled and used to read the fluorescence signal intensity.

[1] = Homo sapiens, MCF7, MCF-7 cells, read-out: % inhibition AKT
[2] = Homo sapiens, MCF7, MCF-7 cells, read-out: % inhibition p70s6k
[3] = Homo sapiens, MCF7, MCF-7 cells, read-out: IC50 p-AKT
[4] = Homo sapiens, MCF7, MCF-7 cells, read-out: IC50 p-p70S6K

SMILES | IC50 [3] | IC50 [4] | inhibition at 0.5 µM [1] | inhibition at 0.5 µM [2] | also measured
COc1ncc(-c2ccc3ncc(OC4CCC(OC)CC4)c(=O)n3c2)cc1NS(=O)(=O)c1sc(C)nc1C (centres unmarked) [compound 208] | – | – | – | – | IC50 (MCF-7 cells, read-out: IC50 p-AKT): ≤ 50 nM
COc1ncc(-c2ccc3nccc(=O)n3c2C)cc1NS(=O)(=O)c1ccc(F)cc1C [compound 57] | – | – | 58.6% | 47.2% | –
COc1ncc(-c2ccc3nccc(=O)n3c2)cc1NS(=O)(=O)c1ccc(C#N)cc1 [compound 21] | 50 to 100 nM | 100 to 250 nM | – | – | inhibition at 1 µM [1]: 94.1%; inhibition at 1 µM [2]: 91.2%
COc1ncc(-c2cn3c(=O)ccnc3cc2C)cc1NS(=O)(=O)c1cccc(F)c1 [compound 124] | – | – | -48% | 2.8% | –
COc1ncc(-c2ccc3nccc(=O)n3c2)cc1NS(=O)(=O)c1ccccc1 [compound 12] | 50 to 100 nM | 100 to 250 nM | – | – | inhibition at 1 µM [1]: 95.4%; inhibition at 1 µM [2]: 91.5%
COc1ncc(-c2ccc3ncc(O)c(=O)n3c2)cc1NS(=O)(=O)c1ccc(F)cc1F [compound 101, 2,4-difluoro-N-(5-(3-hydroxy-4-oxo-4H-pyrido[1,2-a]pyrimidin-7-yl)-2-methoxypyridin-3-yl) benzsulfamide] | – | – | – | – | inhibition at 0.25 µM [1]: 25%; inhibition at 0.25 µM [2]: 8.6%
COc1ncc(-c2ccc3nccc(=O)n3c2)cc1NS(=O)(=O)c1ccc(F)cc1 [compound 11] | 50 to 100 nM | 100 to 250 nM | – | – | inhibition at 1 µM [1]: 94.7%; inhibition at 1 µM [2]: 52.3%
COc1ncc(-c2ccc3ncc(Cl)c(=O)n3c2)cc1NS(=O)(=O)c1cnc(C)s1 [compound 156] | 50 to 100 nM | 100 to 250 nM | – | – | inhibition at 0.25 µM [1]: 77.9%; inhibition at 0.25 µM [2]: 74.1%
COc1ncc(-c2ccc3ncc(Cl)c(=O)n3c2)cc1NS(=O)(=O)c1nnc(C)s1 [compound 158] | – | – | – | – | inhibition at 0.25 µM [1]: -21.8%; inhibition at 0.25 µM [2]: 5.1%
COc1ncc(-c2ccc3ncc(Cl)c(=O)n3c2)cc1NS(=O)(=O)c1cnc(Cl)s1 [compound 160] | – | – | – | – | inhibition at 0.25 µM [1]: 61.9%; inhibition at 0.25 µM [2]: 71.6%
COc1ncc(-c2ccc3nccc(=O)n3c2C)cc1NS(=O)(=O)c1ccccc1Cl [compound 54] | – | – | 83.1% | 50.8% | –
COc1ncc(-c2ccc3nccc(=O)n3c2)cc1NS(=O)(=O)CC(F)(F)F [compound 13] | – | – | – | – | inhibition at 1 µM [1]: 78.3%; inhibition at 1 µM [2]: 53%
COc1ncc(-c2cn3c(=O)ccnc3cn2)cc1NS(=O)(=O)c1cccc(F)c1 [compound 42] | – | – | 9.1% | 5.1% | –
COc1ncc(-c2ccc3ncc(Cl)c(=O)n3c2)cc1NS(=O)(=O)c1sc(NC(C)=O)nc1C [compound 167] | 100 to 250 nM | – | – | – | –
COc1ncc(-c2cn3c(=O)ccnc3cc2C)cc1NS(=O)(=O)c1ccccc1Cl [compound 122] | – | – | -26.6% | 1.2% | –
COc1ncc(-c2ccc3nc(C)cc(=O)n3c2)cc1NS(=O)(=O)c1ccc(F)cc1Cl [compound 222] | – | – | – | – | inhibition at 0.25 µM [1]: -26.7%; inhibition at 0.25 µM [2]: 2%
COc1ncc(-c2ccc3ncc(NC(C)=O)c(=O)n3c2)cc1NS(=O)(=O)c1ccc(F)cc1F [compound 97] | > 250 nM | – | – | – | –
COc1ncc(-c2ccc3ncc(Cl)c(=O)n3c2)cc1NS(=O)(=O)c1c(C)n[nH]c1C [compound 163] | 100 to 250 nM | 50 to 100 nM | – | – | inhibition at 0.25 µM [1]: 78.1%; inhibition at 0.25 µM [2]: 88.8%
COc1ncc(-c2ccc3nccc(=O)n3n2)cc1NS(=O)(=O)c1ccc(C#N)cc1 [compound 77] | – | – | 50% | 4.8% | –

The next lines start with results.

IC50 [3] | IC50 [4] | SMILES | inhibition at 0.5 µM [1] | inhibition at 0.5 µM [2] | also measured
50 to 100 nM | 100 to 250 nM | COCCOc1cnc2ccc(-c3cnc(OC)c(NS(=O)(=O)c4ccc(F)cc4F)c3)cn2c1=O [compound 175, 2,4-difluoro-N-(2-methoxy-5-(3-(2-methoxyethoxy)-4-oxo-4H-pyrido[1,2-a]pyrimidin-7-yl)pyridin-3-yl)benzsulfamide] | – | – | inhibition at 0.25 µM [1]: 75.2%; inhibition at 0.25 µM [2]: 65.4%
≤ 50 nM | 100 to 250 nM | COc1ncc(-c2ccc3nccc(=O)n3c2)cc1NS(=O)(=O)c1cc(F)ccc1F [compound 4] | – | – | inhibition at 1 µM [1]: 95.6%; inhibition at 1 µM [2]: 50.8%
≤ 50 nM | 50 to 100 nM | COc1ncc(-c2ccc3ncc(OC)c(=O)n3c2)cc1NS(=O)(=O)c1ccc(F)cc1F [compound 103, 2,4-difluoro-N-(2-methoxy-5-(3-methoxy-4-oxo-4H-pyrido[1,2-a]pyrimidin-7-yl)pyridin-3-yl) benzsulfamide] | 94.5% | 89.4% | –
≤ 50 nM | 50 to 100 nM | COc1ncc(-c2ccc3ncc(OC)c(=O)n3c2)cc1NS(=O)(=O)c1ccc(F)cc1C [compound 106] | 96.2% | 91.8% | –
≤ 50 nM | ≤ 50 nM | COCCOc1cnc2ccc(-c3cnc(OC)c(NS(=O)(=O)c4sc(C)nc4C)c3)cn2c1=O [compound 176] | – | – | –
≤ 50 nM | – | COCCOc1cnc2ccc(-c3cnc(OC)c(NS(=O)(=O)c4ccc(N)nc4C)c3)cn2c1=O [compound 190] | – | – | –
≤ 50 nM | – | COCCOc1cnc2ccc(-c3cnc(OC)c(NS(=O)(=O)c4ccc(OC)nc4C)c3)cn2c1=O [compound 187] | – | – | –
≤ 50 nM | – | COCCOc1cnc2ccc(-c3cnc(OC)c(NS(=O)(=O)c4sc(OC)nc4C)c3)cn2c1=O [compound 195] | – | – | –
≤ 50 nM | – | CCc1cc(F)ccc1S(=O)(=O)Nc1cc(-c2ccc3ncc(OCCOC)c(=O)n3c2)cnc1OC [compound 280] | – | – | –
≤ 50 nM | – | COc1ncc(-c2ccc3ncc(Cl)c(=O)n3c2)cc1NS(=O)(=O)c1ccc(C)nc1C [compound 169] | – | – | –
≤ 50 nM | 100 to 250 nM | COc1ncc(-c2ccc3ncc(Cl)c(=O)n3c2)cc1NS(=O)(=O)c1ccccc1F [compound 137] | 93.3% | 87.1% | –
≤ 50 nM | – | COc1ncc(-c2ccc3ncc(OC4COC4)c(=O)n3c2)cc1NS(=O)(=O)c1sc(C)nc1C [compound 203] | – | – | –
≤ 50 nM | 50 to 100 nM | COc1ncc(-c2ccc3ncc(C)c(=O)n3c2)cc1NS(=O)(=O)c1ccccc1F [compound 84] | 93.8% | 88.7% | –
≤ 50 nM | – | COc1ncc(-c2ccc3ncc(OCCCF)c(=O)n3c2)cc1NS(=O)(=O)c1sc(C)nc1C [compound 201] | – | – | –
≤ 50 nM | 50 to 100 nM | COc1ncc(-c2ccc3ncc(Cl)c(=O)n3c2)cc1NS(=O)(=O)c1ccc(F)cc1C [compound 134] | 94.9% | 87.7% | –
≤ 50 nM | 50 to 100 nM | COc1ncc(-c2ccc3ncc(Cl)c(=O)n3c2)cc1NS(=O)(=O)c1cc(F)ccc1F [compound 139] | 93.7% | 88.5% | –
≤ 50 nM | 50 to 100 nM | COc1ncc(-c2ccc3ncc(Cl)c(=O)n3c2)cc1NS(=O)(=O)c1ccccc1 [compound 142] | 94.8% | 90.8% | –
≤ 50 nM | – | COCc1cnc2ccc(-c3cnc(OC)c(NS(=O)(=O)c4sc(C)nc4C)c3)cn2c1=O [compound 239, N-(2-methoxy-5-(3-(methoxymethyl)-4-oxo-4H-pyrido[1,2-a]pyrimidin-7-yl)pyridin-3-yl)-2,4-dimethylthiazolyl-5-sulfamide] | – | – | –
≤ 50 nM | – | COc1ncc(-c2ccc3ncc(OCC4CCOC4)c(=O)n3c2)cc1NS(=O)(=O)c1sc(C)nc1C (centres unmarked) [compound 200] | – | – | –
≤ 50 nM | – | COc1ncc(-c2ccc3ncc(OCCO)c(=O)n3c2)cc1NS(=O)(=O)c1sc(C)nc1C [compound 180] | – | – | –
≤ 50 nM | – | COc1ncc(-c2ccc3ncc(OC)c(=O)n3c2)cc1NS(=O)(=O)c1sc(N)nc1C [compound 109] | – | – | –
≤ 50 nM | 50 to 100 nM | COc1ncc(-c2ccc3nccc(=O)n3c2)cc1NS(=O)(=O)c1sccc1Cl [compound 34] | 97% | 95.6% | –
